This note sets out measurements from US20250346585A1 (Alexion Pharmaceuticals, Inc., priority 2022, published 2025).

Where only a bound is given, the exact number is not on record here.

Sequence of Human complement C1s enzyme (P09871 438-688 limits assumed): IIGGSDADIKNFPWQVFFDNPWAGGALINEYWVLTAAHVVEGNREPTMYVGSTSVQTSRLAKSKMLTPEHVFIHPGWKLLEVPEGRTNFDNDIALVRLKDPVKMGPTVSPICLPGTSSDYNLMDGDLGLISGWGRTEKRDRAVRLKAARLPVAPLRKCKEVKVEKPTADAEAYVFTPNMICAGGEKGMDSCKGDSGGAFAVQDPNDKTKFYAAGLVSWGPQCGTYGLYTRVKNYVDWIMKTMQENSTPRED
Sequence of Human complement C1s enzyme (P09871 16-437 partner limits assumed): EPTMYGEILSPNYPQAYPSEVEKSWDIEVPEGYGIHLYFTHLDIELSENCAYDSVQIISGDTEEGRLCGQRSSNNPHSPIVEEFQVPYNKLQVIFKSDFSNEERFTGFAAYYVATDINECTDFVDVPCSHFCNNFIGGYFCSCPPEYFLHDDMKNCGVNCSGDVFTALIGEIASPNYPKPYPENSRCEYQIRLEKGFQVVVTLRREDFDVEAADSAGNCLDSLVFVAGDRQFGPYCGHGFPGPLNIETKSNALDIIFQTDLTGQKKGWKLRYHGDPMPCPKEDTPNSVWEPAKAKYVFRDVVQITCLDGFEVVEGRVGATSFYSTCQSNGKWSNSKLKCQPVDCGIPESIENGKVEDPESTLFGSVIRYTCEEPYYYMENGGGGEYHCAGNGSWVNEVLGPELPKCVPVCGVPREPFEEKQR

The target of the experiment is Human complement C1s enzyme (Homo sapiens (Human), UniProt P09871). In words: Human C1s enzyme assay. In kind it is biochemical. The note with it: Human complement C1s enzyme 1.16 nM, substrate Z-L-Lys-SBzl 100 μM, assay of Example 3; read-out: IC50 (Stars). An outline of the steps:
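Purified serum-derived human C1s (1.16 nM final) preincubated 5 min at room temperature with compound in 50 mM Tris, 1 M NaCl, pH 7.5. Z-L-Lys-SBzl thioester substrate and DTNB added (100 μM each, final); A405 read every 30 s for 30 min. IC50 from nonlinear regression of reaction rates against compound concentration.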
As to `N=C(N)c1csc(CNC(=O)[C@@H]2CC3(CN2C(=O)CN2Cc4ccc(-c5ccc(F)cc5F)cc4C2)OCCO3)c1` [Compound 287, (S)—N-((4-carbamimidoylthiophen-2-yl)methyl)-7-(2-(5-(2,4-difluorophenyl)isoindolin-2-yl)acetyl)-1,4-dioxa-7-azaspiro[4.4]nonane-8-carboxamide], the IC50 (usually the point on the concentration scale where inhibition reaches its midpoint) was < 100 nM.

Turning to `CC(=O)Nc1csc(CNC(=O)[C@@H]2CC3(CN2C(=O)CNC(=O)c2ccc(Oc4ccc(F)cc4)cc2)OCCO3)c1` [Compound 288, (S)-N-((4-acetamidothiophen-2-yl)methyl)-7-((4-(4-fluorophenoxy)benzoyl)glycyl)-1,4-dioxa-7-azaspiro[4.4]nonane-8-carboxamide], the IC50 was > 1000 nM.

For `O=C(NCC(=O)N1CC2(C[C@H]1C(=O)NCc1cc(N3CCCC3)cs1)OCCO2)c1ccc(Oc2ccc(F)cc2)cc1` [Compound 289, (S)-7-((4-(4-fluorophenoxy)benzoyl)glycyl)-N-((4-(pyrrolidin-1-yl)thiophen-2-yl)methyl)-1,4-dioxa-7-azaspiro[4.4]nonane-8-carboxamide], the IC50 was 100 to 1000 nM.

In the case of `C[C@H](NC(=O)c1ccc(-c2ccc(F)cc2F)cc1)C(=O)N1CC2(C[C@H]1C(=O)NCc1cc(C(=N)N)cs1)OCCO2` [Compound 291, (S)—N-((4-carbamimidoylthiophen-2-yl)methyl)-7-((2′,4′-difluoro-[1,1′-biphenyl]-4-carbonyl)-L-alanyl)-1,4-dioxa-7-azaspiro[4.4]nonane-8-carboxamide], the IC50 is < 100 nM.

In the case of `C[C@@H](NC(=O)[C@@H]1C[C@](F)(CO)CN1C(=O)CNC(=O)c1ccc2c(c1)-c1ccccc1C2(F)F)c1cc(C(=N)N)cs1` [Compound 292, (2S,4R)—N—((R)-1-(4-carbamimidoylthiophen-2-yl)ethyl)-1-((9,9-difluoro-9H-fluorene-3-carbonyl)glycyl)-4-fluoro-4-(hydroxymethyl)pyrrolidine-2-carboxamide], the IC50 is < 100 nM.

`C[C@@]12C[C@@H]1N(C(=O)CNC(=O)c1ccc(Oc3ccccc3)cc1)[C@H](C(=O)NCc1cc3c(s1)C(N)=NCC3)C2` [Compound 293, (1S,3S,5S)—N-((7-amino-4,5-dihydrothieno[2,3-c]pyridin-2-yl)methyl)-5-methyl-2-((4-phenoxybenzoyl)glycyl)-2-azabicyclo[3.1.0]hexane-3-carboxamide]: the IC50 was in the range of 100 to 1000 nM.

With `C[C@@H](NC(=O)[C@@H]1CC2(CN1C(=O)CNC(=O)c1ccc3c(c1)Oc1ccccc1N3)OCCO2)c1cc(C(=N)N)cs1` [Compound 294, N-(2-((S)-8-(((R)-1-(4-carbamimidoylthiophen-2-yl)ethyl)carbamoyl)-1,4-dioxa-7-azaspiro[4.4]nonan-7-yl)-2-oxoethyl)-10H-phenoxazine-3-carboxamide], the IC50 is < 100 nM.

`C[C@H](NC(=O)c1ccc(-c2ccc(F)cc2)cc1)C(=O)N1CC2(C[C@H]1C(=O)NCc1cc(C(=N)N)cs1)OCCO2` [Compound 296, (S)—N-((4-carbamimidoylthiophen-2-yl)methyl)-7-((4′-fluoro-[1,1′-biphenyl]-4-carbonyl)-L-alanyl)-1,4-dioxa-7-azaspiro[4.4]nonane-8-carboxamide]: the half-maximal inhibitory concentration (IC50) is < 100 nM.

Turning to `N=C(N)c1csc(CNC(=O)[C@@H]2CC3(CN2C(=O)CNC(=O)c2ccc(-c4ccccc4)o2)OCCO3)c1` [Compound 297, (S)—N-((4-carbamimidoylthiophen-2-yl)methyl)-7-((5-phenylfuran-2-carbonyl)glycyl)-1,4-dioxa-7-azaspiro[4.4]nonane-8-carboxamide], the IC50 is < 100 nM.

Regarding `N=C(N)c1csc(CNC(=O)[C@@H]2CC3(CN2C(=O)CNC(=O)c2ccc(-c4ccc(F)cc4F)o2)OCCO3)c1` [Compound 298, (S)—N-((4-carbamimidoylthiophen-2-yl)methyl)-7-((5-(2,4-difluorophenyl)furan-2-carbonyl)glycyl)-1,4-dioxa-7-azaspiro[4.4]nonane-8-carboxamide], the IC50 is < 100 nM.

With `N=C(N)c1csc(CNC(=O)[C@@H]2CC3(CN2C(=O)CNC(=O)c2ccc(-c4ccc(F)cc4)o2)OCCO3)c1` [Compound 299, (S)—N-((4-carbamimidoylthiophen-2-yl)methyl)-7-((5-(4-fluorophenyl)furan-2-carbonyl)glycyl)-1,4-dioxa-7-azaspiro[4.4]nonane-8-carboxamide], the IC50 is < 100 nM.

`C[C@H](NC(=O)c1ccc(-c2ccccc2)cc1)C(=O)N1CC2(C[C@H]1C(=O)NCc1cc(C(=N)N)cs1)OCCO2` [Compound 300, (S)-7-(([1,1′-biphenyl]-4-carbonyl)-L-alanyl)-N-((4-carbamimidoylthiophen-2-yl)methyl)-1,4-dioxa-7-azaspiro[4.4]nonane-8-carboxamide]: the IC50 is < 100 nM.

With `C[C@@H](NC(=O)c1ccc(-c2ccc(F)cc2F)cc1)C(=O)N1CC2(C[C@H]1C(=O)NCc1cc(C(=N)N)cs1)OCCO2` [Compound 301, (S)—N-((4-carbamimidoylthiophen-2-yl)methyl)-7-((2′,4′-difluoro-[1,1′-biphenyl]-4-carbonyl)-D-alanyl)-1,4-dioxa-7-azaspiro[4.4]nonane-8-carboxamide], the IC50 was < 100 nM.

`C[C@@H](NC(=O)c1ccc(-c2ccccc2)cc1)C(=O)N1CC2(C[C@H]1C(=O)NCc1cc(C(=N)N)cs1)OCCO2` [Compound 302, (S)-7-(([1,1′-biphenyl]-4-carbonyl)-D-alanyl)-N-((4-carbamimidoylthiophen-2-yl)methyl)-1,4-dioxa-7-azaspiro[4.4]nonane-8-carboxamide]: the IC50 was < 100 nM.

On to `C[C@@H](NC(=O)[C@@H]1C[C@]2(CN)C[C@@H]2N1C(=O)CNC(=O)c1ccc2c(c1)-c1ccccc1C2(F)F)c1cc(C(=N)N)cs1` [Compound 303, (1S,3S,5S)-5-(aminomethyl)-N—((R)-1-(4-carbamimidoylthiophen-2-yl)ethyl)-2-((9,9-difluoro-9H-fluorene-3-carbonyl)glycyl)-2-azabicyclo[3.1.0]hexane-3-carboxamide], for which the IC50 was < 100 nM.

`C[C@@H](NC(=O)[C@@H]1C[C@]2(CN(C)C)C[C@@H]2N1C(=O)CNC(=O)c1ccc2c(c1)-c1ccccc1C2(F)F)c1cc(C(=N)N)cs1` [Compound 304, (1S,3S,5S)—N—((R)-1-(4-carbamimidoylthiophen-2-yl)ethyl)-2-((9,9-difluoro-9H-fluorene-3-carbonyl)glycyl)-5-((dimethylamino)methyl)-2-azabicyclo[3.1.0]hexane-3-carboxamide]: the IC50 is < 100 nM.

Turning to `C[C@@H](NC(=O)[C@@H]1C[C@@H](C(F)(F)F)CN1C(=O)CNC(=O)c1ccc(Oc2ccc(F)cc2)cc1)c1cc(C(=N)N)cs1` [Compound 307, (2S,4R)—N—((R)-1-(4-carbamimidoylthiophen-2-yl)ethyl)-1-((4-(4-fluorophenoxy)benzoyl)glycyl)-4-(trifluoromethyl)pyrrolidine-2-carboxamide], the IC50 is < 100 nM.

Take `O=C(NCC(=O)N1CC2(C[C@H]1C(=O)NCc1cc(NCCO)cs1)OCCO2)c1ccc(Oc2ccc(F)cc2)cc1` [Compound 308, (S)-7-((4-(4-fluorophenoxy)benzoyl)glycyl)-N-((4-((2-hydroxyethyl)amino)thiophen-2-yl)methyl)-1,4-dioxa-7-azaspiro[4.4]nonane-8-carboxamide]: the IC50 is > 1000 nM.

For the molecule `C=CC(=O)Nc1csc(CNC(=O)[C@@H]2CC3(CN2C(=O)CNC(=O)c2ccc(Oc4ccc(F)cc4)cc2)OCCO3)c1` [Compound 309, (S)-N-((4-acrylamidothiophen-2-yl)methyl)-7-((4-(4-fluorophenoxy)benzoyl)glycyl)-1,4-dioxa-7-azaspiro[4.4]nonane-8-carboxamide], the IC50 was > 1000 nM.

As to `NC(=O)CCNc1csc(CNC(=O)[C@@H]2CC3(CN2C(=O)CNC(=O)c2ccc(Oc4ccc(F)cc4)cc2)OCCO3)c1` [Compound 310, (S)-N-((4-((3-amino-3-oxopropyl)amino)thiophen-2-yl)methyl)-7-((4-(4-fluorophenoxy)benzoyl)glycyl)-1,4-dioxa-7-azaspiro[4.4]nonane-8-carboxamide], the IC50 is > 1000 nM.

Take `NCCC(=O)Nc1csc(CNC(=O)[C@@H]2CC3(CN2C(=O)CNC(=O)c2ccc(Oc4ccc(F)cc4)cc2)OCCO3)c1` [Compound 311, (S)-N-((4-(3-aminopropanamido)thiophen-2-yl)methyl)-7-((4-(4-fluorophenoxy)benzoyl)glycyl)-1,4-dioxa-7-azaspiro[4.4]nonane-8-carboxamide]: the IC50 was > 1000 nM.

As to `C[C@@H](NC(=O)[C@@H]1CC2(CN1C(=O)CNC(=O)c1ccc3c(c1)Sc1ccccc1O3)OCCO2)c1cc(C(=N)N)cs1` [Compound 312, (S)—N—((R)-1-(4-carbamimidoylthiophen-2-yl)ethyl)-7-((phenoxathiine-2-carbonyl)glycyl)-1,4-dioxa-7-azaspiro[4.4]nonane-8-carboxamide], the IC50 is < 100 nM.

Take `C[C@@H](NC(=O)[C@@H]1C[C@]2(COCCN)C[C@@H]2N1C(=O)CNC(=O)c1ccc2c(c1)-c1ccccc1C2(F)F)c1cc(C(=N)N)cs1` [Compound 313, (1S,3S,5R)-5-((2-aminoethoxy)methyl)-N—((R)-1-(4-carbamimidoylthiophen-2-yl)ethyl)-2-((9,9-difluoro-9H-fluorene-3-carbonyl)glycyl)-2-azabicyclo[3.1.0]hexane-3-carboxamide]: the 50% inhibitory concentration (IC50) is < 100 nM.

For `N=C(N)c1csc(C(CN)NC(=O)[C@@H]2C[C@@H](OC(F)F)CN2C(=O)CNC(=O)c2ccc(Oc3ccccc3)cc2)c1` (stereo partly shown) [Compound 314], the IC50 is > 1000 nM.

`NCC(=O)Nc1csc(CNC(=O)[C@@H]2CC3(CN2C(=O)CNC(=O)c2ccc(Oc4ccc(F)cc4)cc2)OCCO3)c1` [Compound 316, (S)-N-((4-(2-aminoacetamido)thiophen-2-yl)methyl)-7-((4-(4-fluorophenoxy)benzoyl)glycyl)-1,4-dioxa-7-azaspiro[4.4]nonane-8-carboxamide]: the IC50 lay within 100 to 1000 nM.
